Reference: patent publication US20190269730A1, “REGULATABLE CELL LINES AND METHODS OF USE THEREOF” (Auxolytic Ltd, priority 2016, published 2019)

What was measured:
[1] = test system: 5-FOA selected UMPS targeted T cells; assay: Uracil auxotrophy growth assay of 5-FOA selected T cells (cell counts at day 8); format: cell-based, human
Protocol: (§1) Cells were cryopreserved in Bambanker medium. After thawing cells were cultured at 37° C., 5% CO2 in X-Vivo 15 (Lonza) supplemented with or without 5% human serum (Sigma-Aldrich) and 100 IU/ml human recombinant IL-2 (Peprotech) and 10 ng/ml human recombinant IL-7 (BD Biosciences). UMP or Uridine were added at 250 ug/ml. 5-FOA was added at 100 ug/ml to 1 mg/ml. During culture, medium was refreshed every 2 days.
(§2) Genomic DNA was harvested using QuickExtract (Epicentre). Cells were counted on an automated cell counter using Trypan blue staining or on a Cytoflex (Beckman Coulter) flow cytometer using CountBright beads (ThermoFisher) as a reference. Data was analyzed using Excel (Microsoft) and FlowJo (Tree Star).
To assay whether or not the cells selected for by 5-FOA treatment are uracil auxotrophs, mock or UMPS targeted T cells were exposed to 5-FOA as in Example 4. Following 4 days of 5-FOA selection, the population of cells was split into a uracil containing media (either UMP, uridine or both) and a uracil deficient media. A growth assay was subsequently performed by cell counting after following 4 days incubation in test media (day 8) (FIG. 4A).

[2] = test system: human T cells; assay: 5-FOA resistance assay of UMPS targeted vs mock targeted T cells (cell counts after 4 days); format: cell-based; conditions: for survival / viability of cells in 5-FOA: mock treated and UMPS targeted T cells grown in 5-FOA for 4 days, UMP or Uridine 250 ug/ml, 5% human serum
Protocol: as §1, §2
5-FOA selects for uracil auxotrophic cells in other organisms (e.g. Boeke et al. 1984, Mol. Gen. Genet. 197(2):345-6). To investigate the potential utility of 5-FOA for the selection of uracil auxotrophs in human cells, the UMPS gene was targeted in human T cells by Cas9-gRNA complex electroporation followed by recovery (as in Example 2) followed by an assay of resistance to 5-FOA treatment (FIG. 3A). Cells were grown in 5-FOA and a variety of combinations of serum and uracil sources for 4 days before cell counting was performed. […] This is likely through a competition based mechanism (uridine can reverse 5-fluorouracil toxicity in humans (van Groeningen et al. 1992, Semin. Oncol. 19(2 Suppl 3):148-54)) (FIGS. 3B and C).

[3] = test system: UMPS edited human T cells; assay: Growth of heterogeneous UMPS edited T cell population with/without exogenous uracil source (cell counts); format: cell-based; conditions: UMP or Uridine added at 250 ug/ml; no selection step; compared with mock edited and CCR5 targeted controls
Protocol: Cells were cryopreserved in Bambanker medium. After thawing cells were cultured at 37° C., 5% CO2 in X-Vivo 15 (Lonza) supplemented with or without 5% human serum (Sigma-Aldrich) and 100 IU/ml human recombinant IL-2 (Peprotech) and 10 ng/ml human recombinant IL-7 (BD Biosciences). UMP or Uridine were added at 250 ug/ml. 5-FOA was added at 100 ug/ml to 1 mg/ml. During culture, medium was refreshed every 2 days. T cells were activated using immobilized Anti-CD3 (clone OKT3, Tonbo Biosciences) and soluble anti-CD28 (clone CD28.2, Tonbo Biosciences) for 3 days before electroporation. For the experiments in FIGS. 1, 3 and 4, 1.4 million activated T cells were electroporated. For the experiments in FIG. 2, 30,000 activated T cells were electroporated per condition. These cells were resuspended in electroporation solution, mixed with the pre-complexed RNP and electroporated using a 4D-Nucleofector (Lonza) using program EO-115. The RNP consisted of Cas9 protein (Alt-R® S. pyogenes, IDT) at 300 ug/ml and sgRNA using a sgRNA:Cas9 molar ratio of 2.5. Genomic DNA was harvested using QuickExtract (Epicentre). Cells were counted on an automated cell counter using Trypan blue staining or on a Cytoflex (Beckman Coulter) flow cytometer using CountBright beads (ThermoFisher) as a reference. Data was analyzed using Excel (Microsoft) and FlowJo (Tree Star). […]

SMILES | killing of non-UMPS targeted cells during 5-FOA selection ([1]; mock targeted T cell cultures, growth negligible after selection) | toxicity of 5-FOA ([2]; UMPS targeted vs mock targeted T cells, 4 days of 5-FOA selection, 100 ug/ml to 1 mg/ml) | survival / viability of cells in 5-FOA [2] | growth of UMPS edited cells [3] | cell growth of 5-FOA selected UMPS targeted population ([1]; 4 days in uracil containing (UMP, uridine or both) vs uracil deficient media after 4 days of 5-FOA selection)
O=C(O)c1[nH]c(=O)[nH]c(=O)c1F [5-FOA, 5-fluoroorotic acid] | successful killing of non-UMPS targeted cells | less toxic in UMPS targeted cell lines | – | – | –
O=c1ccn([C@@H]2O[C@H](COP(=O)(O)O)[C@@H](O)[C@H]2O)c(=O)[nH]1 [UMP] | – | – | improved the survival of both mock treated and UMPS targeted cells in 5-FOA | rescue the growth of UMPS edited cells to the same level as mock edited and CCR5 targeted controls | –
O=c1cc[nH]c(=O)[nH]1 [uracil] | – | – | – | – | cell growth was stimulated
O=c1ccn([C@@H]2O[C@H](CO)[C@@H](O)[C@H]2O)c(=O)[nH]1 [uridine] | – | – | improved the survival of both mock treated and UMPS targeted cells in 5-FOA | rescue the growth of UMPS edited cells to the same level as mock edited and CCR5 targeted controls | –
